Measured values: patent publication US9598401B2, “Substituted heteroaryl compounds and methods of use thereof” (Sunshine Lake Pharma Co., Ltd., priority 2013, dated 2017)
Read-outs that look alike come from different tables or passages of the source.

Experiments:
serotonin transporter = serotonin transporter (Rattus norvegicus (Rat), UniProt P31652); assay: Inhibitory effect on [3H]5-HT uptake in rat synaptosome; format: biochemical; conditions: rat brain synaptosomes, 37° C., 15 minutes, 0.1 μCi [3H]5-HT
Chain of serotonin transporter (P31652 whole entry): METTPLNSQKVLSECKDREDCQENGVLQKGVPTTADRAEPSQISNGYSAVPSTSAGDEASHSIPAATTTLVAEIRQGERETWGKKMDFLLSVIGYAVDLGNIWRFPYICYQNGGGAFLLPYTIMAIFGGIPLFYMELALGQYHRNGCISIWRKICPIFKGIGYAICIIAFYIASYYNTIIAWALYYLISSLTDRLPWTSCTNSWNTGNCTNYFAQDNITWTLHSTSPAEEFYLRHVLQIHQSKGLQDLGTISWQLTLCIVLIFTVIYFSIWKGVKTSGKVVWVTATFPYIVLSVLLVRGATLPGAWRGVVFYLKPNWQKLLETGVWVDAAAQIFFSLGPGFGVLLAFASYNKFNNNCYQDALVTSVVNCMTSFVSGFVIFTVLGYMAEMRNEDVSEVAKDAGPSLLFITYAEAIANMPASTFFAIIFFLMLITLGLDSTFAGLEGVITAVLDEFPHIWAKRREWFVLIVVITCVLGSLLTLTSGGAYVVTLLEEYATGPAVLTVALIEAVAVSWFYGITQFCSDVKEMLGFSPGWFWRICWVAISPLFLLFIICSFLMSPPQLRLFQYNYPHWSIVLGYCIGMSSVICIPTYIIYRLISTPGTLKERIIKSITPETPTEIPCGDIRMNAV
Method: The synaptosomes (150 μg) prepared from the rat brain were incubated at 37° C. for 15 minutes with 0.1 μCi [^3H]5-HT in the absence or presence of the test compound or the reference compound in a buffer solution containing 106.2 mM NaCl, 4.5 mM KCl, 2.25 mM MgSO4, 1.08 mM NaH2PO4, 22.5 mM NaHCO3, 9.9 mM glucose, 9 μM EGTA and 45 μM ascorbic acid (pH 7.4).
Inhibition of serotonin transporter in rat synaptosome was measured by the concentrations of [^3H]5-HT.

dopamine D2S receptor = dopamine D2S receptor (Homo sapiens (Human), UniProt P14416); assay: Affinity for human dopamine D2S receptor ([3H]methyl-spiperone binding); conditions: 0.3 nM [3H]methyl-spiperone, cell membrane homogenates, 22° C., 60 minutes
Chain of dopamine D2S receptor (P14416 other isoform, or with tags, fused parts or gaps): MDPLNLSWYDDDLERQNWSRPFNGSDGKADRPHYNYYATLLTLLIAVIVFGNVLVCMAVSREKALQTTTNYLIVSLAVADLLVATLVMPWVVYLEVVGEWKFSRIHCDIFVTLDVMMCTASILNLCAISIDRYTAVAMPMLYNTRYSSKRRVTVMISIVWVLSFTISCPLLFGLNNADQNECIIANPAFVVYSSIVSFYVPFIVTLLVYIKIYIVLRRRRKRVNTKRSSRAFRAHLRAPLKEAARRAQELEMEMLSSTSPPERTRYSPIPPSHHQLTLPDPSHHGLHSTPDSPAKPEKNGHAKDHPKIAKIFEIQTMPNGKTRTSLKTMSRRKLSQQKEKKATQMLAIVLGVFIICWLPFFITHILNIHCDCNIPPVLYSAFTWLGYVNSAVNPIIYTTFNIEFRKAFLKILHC
Method: Cell membrane homogenates (24 μg protein) were incubated at 22° C. for 60 minutes with 0.3 nM [3H]methyl-spiperone in the absence or presence of the test compound in a buffer solution containing 50 mM Tris-HCl (pH 7.4), 120 mM NaCl, 5 mM KCl, 5 mM MgCl2 and 1 mM EDTA.
The non-specific binding value was determined by incubating the same mixture in the presence of 10 μM (+)butaclamol.
Following the incubation, the samples were filtered rapidly under vacuum through glass fiber filter (GF/B, Packard) presoaked with 0.3% PEI and rinsed several times with ice-cold 50 mM Tris-HCl using a 96-sample cell harvester (Unifilter, Packard). The filters were dried and the retained radioactivity was measured in a scintillation counter (Topcount, Packard) using a scintillation cocktail (Microscint 0, Packard).
The experimental results were expressed as a percent inhibition of the control radioligand specific binding, and Ki was the inhibition constant. The standard reference compound was (+)butaclamol, which was tested in each experiment at several concentrations to obtain a competition curve from which its IC50 was calculated, and then Ki value was calculated by ChengPrusoff equation.

5-HT1A receptor = 5-HT1A receptor (Homo sapiens (Human), UniProt P08908); assay: Affinity for human 5-HT1A receptor ([3H]8-OH-DPAT binding, HEK-293 cell homogenates);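 note: Filter-retained radioactivity counted by scintillation, non-specific binding defined with 10 µM 8-OH-DPAT, Ki derived from percent inhibition of specific radioligand binding versus control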
Chain of 5-HT1A receptor (P08908 whole entry): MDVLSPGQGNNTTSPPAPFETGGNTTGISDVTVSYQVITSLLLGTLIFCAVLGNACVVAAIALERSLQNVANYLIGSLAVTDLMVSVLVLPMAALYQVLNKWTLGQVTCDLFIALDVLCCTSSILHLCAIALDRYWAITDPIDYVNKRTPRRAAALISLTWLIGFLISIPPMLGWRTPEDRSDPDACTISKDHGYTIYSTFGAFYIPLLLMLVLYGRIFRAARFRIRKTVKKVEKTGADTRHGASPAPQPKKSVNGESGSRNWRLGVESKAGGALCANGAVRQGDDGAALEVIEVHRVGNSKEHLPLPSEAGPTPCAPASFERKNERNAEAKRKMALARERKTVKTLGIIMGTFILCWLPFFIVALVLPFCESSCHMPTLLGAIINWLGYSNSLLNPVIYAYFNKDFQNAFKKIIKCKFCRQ
Method: The non-specific binding value was determined by incubating the same mixture in the presence of 10 μM 8-OH-DPAT, which was used as the standard reference compound and tested in each experiment at several concentrations to obtain a competition curve.
Following the incubation, the samples were filtered rapidly under vacuum through glass fiber filter (GF/B, Packard) presoaked with 0.3% PEI and rinsed several times with ice-cold 50 mM Tris-HCl using a 96-sample cell harvester (Unifilter, Packard). The filters were dried and the retained radioactivity was measured in a scintillation counter (Topcount, Packard) using a scintillation cocktail (Microscint 0, Packard). The experimental results were expressed as a percent inhibition of the control radioligand specific binding, and Ki was the inhibition constant.

[1] = read-out: Ki, binding affinity for 5-HT1A receptor, 0.3 nM [3H]8-OH-DPAT, human HEK-293 cell homogenates, 22° C., 60 minutes

Structure (SMILES) | IC50 (serotonin transporter) [nM] | Ki (dopamine D2S receptor) [nM] | Ki (5-HT1A receptor; [1]) [nM] | Ki (5-HT1A receptor) [nM]
Cc1nc(N2CCN(CCCc3c[nH]c4ccc(F)cc34)CC2)sc1C(N)=O [Example 42, 2-(4-(3-(5-Fluoro-1H-indol-3-yl)propyl)piperazin-1-yl)-4-methylthiazole-5-carboxamide] | 5.3 | 310 | 4.5 | –
Cc1nc(N2CCN(CCCc3c[nH]c4ccc(C#N)cc34)CC2)sc1C(N)=O [Example 44, 2-(4-(3-(5-Cyano-1H-indol-3-yl)propyl)piperazin-1-yl)-4-methylthiazole-5-carboxamide] | 4.3 | > 1000 | 3.7 | –
N#Cc1ccc2[nH]cc(CCCN3CCN(c4nccc(C(N)=O)n4)CC3)c2c1 [Example 30, 2-(4-(3-(5-Cyano-1H-indol-3-yl)propyl)piperazin-1-yl)pyrimidine-4-carboxamide] | 0.75 | > 1000 | 14 | –
Cc1cc(C)nc(N2CCN(CCCc3c[nH]c4ccccc34)CC2)n1 [Example 16, 3-(3-(4-(4,6-Dimethylpyrimidin-2-yl)piperazin-1-yl)propyl)-1H-indole] | 53 | 110 | 4.1 | –
Cc1nc(N2CCN(CCCCc3c[nH]c4ccc(F)cc34)CC2)sc1C#N [Example 45, 2-(4-(4-(5-Fluoro-1H-indol-3-yl)butyl)piperazin-1-yl)-4-methylthiazole-5-carbonitrile] | 8.3 | > 1000 | 14 | –
Cc1nc(N2CCN(CCCCc3c[nH]c4ccc(C#N)cc34)CC2)sc1C#N [Example 47, 2-(4-(4-(5-Cyano-1H-indol-3-yl)butyl)piperazin-1-yl)-4-methylthiazole-5-carbonitrile] | 1.5 | 130 | 5 | –
CCOC(=O)c1sc(N2CCN(CCCc3c[nH]c4ccc(C#N)cc34)CC2)nc1C [Example 40, Ethyl 2-(4-(3-(5-cyano-1H-indol-3-yl)propyl)piperazin-1-yl)-4-methylthiazole-5-carboxylate] | 3.5 | > 1000 | 0.3 | –
Cc1nc(N2CCN(CCCCc3c[nH]c4ccc(F)cc34)CC2)sc1C(N)=O [Example 41, 2-(4-(4-(5-Fluoro-1H-indol-3-yl)butyl)piperazin-1-yl)-4-methylthiazole-5-carboxamide] | 2.4 | 140 | 23 | –
COc1cc(OC)nc(N2CCN(CCCc3c[nH]c4ccc(C#N)cc34)CC2)n1 [Example 10, 3-(3-(4-(4,6-Dimethoxypyrimidin-2-yl)piperazin-1-yl)propyl)-1H-indole-5-carbonitrile] | 3.6 | 200 | 1.3 | –
CCOC(=O)c1sc(N2CCN(CCCCc3c[nH]c4ccc(F)cc34)CC2)nc1C [Example 37, Ethyl 2-(4-(4-(5-fluoro-1H-indol-3-yl)butyl)piperazin-1-yl)-4-methylthiazole-5-carboxylate] | 7 | 130 | 5.5 | –
N#Cc1ccc2[nH]cc(CCCN3CCN(c4nccc(C(F)(F)F)n4)CC3)c2c1 [Example 34, 3-(3-(4-(4-(Trifluoromethyl)pyrimidin-2-yl)piperazin-1-yl)propyl)-1H-indole-5-carbonitrile] | 5.9 | – | – | 0.2
Cc1cc(C)nc(N2CCN(CCCc3c[nH]c4ccc(C#N)cc34)CC2)n1 [Example 20, 3-(3-(4-(4,6-Dimethylpyrimidin-2-yl)piperazin-1-yl)propyl)-1H-indole-5-carbonitrile] | 2 | – | 1.1 | –
Cc1nc(N2CCN(CCCc3c[nH]c4ccc(C#N)cc34)CC2)sc1C#N [Example 48, 2-(4-(3-(5-Cyano-1H-indol-3-yl)propyl)piperazin-1-yl)-4-methylthiazole-5-carbonitrile] | 7.7 | – | 2.6 | –
Cc1nc(N2CCN(CCCCc3c[nH]c4ccc(C#N)cc34)CC2)sc1C(N)=O [Example 43, 2-(4-(4-(5-Cyano-1H-indol-3-yl)butyl)piperazin-1-yl)-4-methylthiazole-5-carboxamide] | 0.85 | – | 12 | –
